Results on 2 molecules are retold here after paper PMC4350332 (Oncotarget, 2014).

A word on the EC50: it is the concentration needed to bring the measured effect to its halfway point. Lower therefore signals greater potency.

Common to all, as to format: cell-based
For series [1], the system named is HSP-70 induction in PC-3 cells (biomarker for HSP-90 inhibition). The series can be described thus: HSP-70 in-cell ELISA assay. The note with it: for EC50: PD marker (ELISA), PC-3 cells, 24 h. Here is the method: DELFIA assay reagents (assay buffer, enhancement solution and europium-labeled secondary antibody) were obtained from Perkin Elmer (MD, USA). PC-3 cells were seeded (1×10^4 per well) into 96 well black-walled cell culture plates. The following day, the cells were treated with a 10 point tripling dilution series of test compound for 24 h followed by fixation with TBS containing 4% formaldehyde for 15 min at RT. The cells were then permeabilized the addition of permeabilization buffer (TBS containing 1% triton-X-100) and a further 15 min incubation at RT. The cells were then washed 3X with TBS, followed by the addition of quenching solution (TBS containing 1% H2O2), a 20 min incubation at RT and a further 3X wash with TBS. The permeabilized cells were then incubated for 30 minutes with blocking buffer (TBS containing 5% (w/v) dried milk) followed by a 90 min incubation with HSP-70 primary antibody (ENZO; 1:1000 dilution in TBS containing 200 μg/ml BSA). The wells were then washed 3X with wash buffer (TBS containing 0.1% Tween-20), followed by the addition of europium-labeled anti-mouse secondary antibody (1:1000 in DELFIA assay buffer) and a 1 h incubation at RT. The wells were then washed 3X with wash buffer followed by the addition of enhancement solution.
Background: An ELISA detects its analyte on a solid surface through an enzyme-linked reagent.

Series [2] relates to PDC activity in PC-3 cells. As to the kind of experiment: Cellular PDC activity assay, PC-3. Conditions: magnitude greater for VER-246608. The protocol:
(§1) Cellular PDC activity was determined using a commercial assay kit (Abcam) as per the manufacturer's instructions. Briefly, PC-3 and K562 cell suspensions at a density of 1×10^6 and 1.5×10^6, respectively, were transferred to 96 well plates (250 μL per well). Cells were pre-treated with compound or DMSO for 1 h in a CO2incubator at 37°C followed by cell lysis in 250 μL of a 9:1 dilution of assay kit detergent (containing 20 mM NaF and 40 μM of the PDK inhibitor VER-246550) for 10 min on ice. The cellular debris was then pelleted at 1000g for 10 min. A 200 μL aliquot of each lysate was then transferred to the immunocapture microplate. PDC reaction rates were determined from the slope of the reaction curves and expressed as a percentage of the vehicle (DMSO) control values.

For series [3], the system named is PDC activity in K562 cells. The series can be described thus: Cellular PDC activity assay, K562. The note with it: 20 μM VER-246608 or […] Nov3r. The protocol: as §1, with “values. […]” for “values.”
(§2) transformed and additional cancer cell lines. A, The indicated cell lines were seeded into […]
relevant media containing either 2 g/L D-glucose or D-galactose for 96 h. Cell mass was determined using the sulforhodamine B assay. Results are expressed as the percentage change vs DMSO control values for cells incubated in D-glucose containing media. […]
analysis of pyruvate dehydrogenase (PDH) activity in cell lysates using a commercially available ELISA-based assay kit (Abcam). Results are expressed as a percentage of the PDH reaction rate in DMSO treated cells. […]

In series [4] the test system is PC-3 cells. The series can be described thus: Oxygen consumption (oxytherm oxygen electrode). The protocol:
Oxygen consumption was measured using an ‘oxytherm’ oxygen electrode system (Hansatech). PC-3 cells were trypsinized and re-suspended to a density of 1.7×10^6cells/mL in RPMI-1640 media containing 10% FCS. Compounds or DMSO were then added to 1.5 mL aliquots of this suspension to yield the required final concentration followed by a 1 h incubation period in a CO2incubator at 37°C. The compound/vehicle treated cells were then transferred to the oxygen electrode chamber (pre-equilibrated to 37°C). Oxygen consumption was measured over a 30 minute period and the rate of oxygen consumption determined by plotting oxygen concentration against time and obtaining the slope of the line using the linear fit function within excel.

In series [5] the test system is hTert immortalized human foreskin fibroblast (HFF) cell line. As to the kind of experiment: Glycolytic activity (L-lactate, D-glucose) in HFF cells. The note with it: 6 h, 0.25 g/L D-glucose, 2% dialyzed FCS; VER-246608 effect only at top concentration (27 μM). The protocol:
Pyruvate, L-lactate, D-glucose and L-alanine levels were determined using commercially available assay kits (Abcam) as per the manufacturer's instructions. […]
as §2
relevant media containing either 2 g/L D-glucose or D-galactose for 96 h. Cell mass was determined using the sulforhodamine B assay. Results are expressed as the percentage change vs DMSO control values for cells incubated in D-glucose containing media. B, HFF cells were seeded into 96 well plates at a density of 1x10^4 cells per well in 96 well plates. […]
and Nov3r (in DMEM media containing 0.25 g/L D-glucose and 2% dialyzed FCS) for 6 h, followed by the removal of cell culture media for analysis of L-lactate and D-glucose. At the end of the experiment the remaining media was aspirated and the cells transferred to a - 80 °C freezer for subsequent analysis of p(Ser293)E1α levels by MSD ELISA. C. K562 cells […]
analysis of pyruvate dehydrogenase (PDH) activity in cell lysates using a commercially available ELISA-based assay kit (Abcam). Results are expressed as a percentage of the PDH reaction rate in DMSO treated cells. D, Jurkat cells ([…]) were pre-treated in RPMI- […]
suspension in glucose-free RPMI-1640 media supplemented with 2 g/L 1,6-13C-D-Glucose followed by kinetic acquisition of 13C-NMR spectra at 10 min intervals. […]

For series [6], the system named is PC-3 cells. The series can be described thus: Sulforhodamine B cell mass assay, PC-3 cells. Here is the method: Compound cytotoxicity was determined using the Sulforhodamine B assay for cells cultured as a monolayer as described previously (45). For spheroid growth experiments, PC-3 cells were seeded (500 cells/well) into 96 well round bottom plates (Corning Costar 7007) in RPMI-1640 media containing 2.5% (w/v) Matrigel (BD Biosciences). […] Spheroid volumes were determined by obtaining diameter measurements from images taken on a Zeiss Axiovert 200M inverted microscope using the axiovision software.

Turning to `Cc1cnc(Cl)nc1-c1ccc(N(Cc2ccc(CNC(=O)C(F)F)cc2)C(=O)c2ccc(O)cc2O)cc1` [VER-246608], the EC50 in series [1] (Homo sapiens) is > 80 µM. For the same molecule, the “Induction of HSP-70 in PC-3 cells” value in series [1] (biomarker for HSP-90 inhibition) was “lack of a detectable induction”. Besides, the “Increase in PDC activity” value in series [2] and in series [3] was “an increase in PDC activity” in each case. Also, the “Increase in the rate of oxygen consumption” value in series [4] (20 μM, 1 h pre-treatment) is given as 66%. Moreover, the “Effect on glycolytic activity in HFF cells” value in series [5] is “decrease in extracellular L-lactate and D-glucose levels”. Also, in series [6] (PC-3, 20 μM, 120 h, 0% or 0.1% FCS), the “Effect on growth in serum-free media or 0.1% serum” value is given as “complete suppression of growth”. In addition, the “Reduction in cell mass vs DMSO control” value in series [6] (PC-3, 20 μM, 120 h, D-glucose depletion with 15 mg/L L-glutamine) is given as 50%. In series [6] (PC-3, 20 μM, 120 h, serum depleted conditions (0.5% FCS)), this molecule showed a Reduction in growth of 70%.
Turning to `C[C@@H]1CN(C(=O)[C@](C)(O)C(F)(F)F)[C@@H](C)CN1C(=O)c1ccc(C#N)cc1` [Nov3r, reference compound], the EC50 in series [1] is > 80 µM. Moreover, the “Increase in PDC activity” value in series [2] and in series [3] was “an increase in PDC activity” in each case. Further, in series [4] (concentrations ≥ 1μM (3 μM in Fig. 3B)), the “Effect on oxygen consumption rate” value is listed as “no discernible effect”. In addition, the “Effect on glycolytic activity in HFF cells” value in series [5] is on record as “did not alter glycolytic activity”. For the same molecule, in series [6] (any of the culture conditions, up to a top concentration of 80 μM), the Cytotoxicity/cytostasis-induction entry is given as “no evidence of cytotoxicity/cytostasis-induction”.
